In US7858635B2 (priority 2005, dated 2010):
Read-outs that look alike come from different tables or passages of the source.

Experiments:
[1] = target: T1, M1 muscarinic receptor (Homo sapiens, UniProt P11229); assay: Functional mobilization of intracellular calcium (FLIPR, Fluo-3), M1-CHO cells; type: cell-based; details: for Emax: 100% efficacy is the maximum response obtained with the Carbachol control, read-out: M1 Efficacy
T1 construct: expressed in transfected cells; host or cells: CHO cells (M1-CHO, under zeocin and G418 selection)
T1 sequence (P11229 1-460): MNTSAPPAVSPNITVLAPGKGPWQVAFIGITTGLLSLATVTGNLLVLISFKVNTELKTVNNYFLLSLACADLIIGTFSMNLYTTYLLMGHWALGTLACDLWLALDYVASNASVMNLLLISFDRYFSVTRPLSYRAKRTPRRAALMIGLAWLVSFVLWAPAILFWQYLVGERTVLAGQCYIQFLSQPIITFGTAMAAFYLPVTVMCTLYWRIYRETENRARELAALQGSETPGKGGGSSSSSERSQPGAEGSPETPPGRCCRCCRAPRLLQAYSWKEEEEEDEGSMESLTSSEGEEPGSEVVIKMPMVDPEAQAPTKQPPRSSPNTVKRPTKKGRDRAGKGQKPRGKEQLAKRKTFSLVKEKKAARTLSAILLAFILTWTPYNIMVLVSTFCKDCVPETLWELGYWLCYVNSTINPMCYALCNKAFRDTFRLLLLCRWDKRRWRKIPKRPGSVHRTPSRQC
In short: (§1)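 Intracellular calcium was tracked by fluorescence (488/540 nm) over 60 sec after compound addition to dye-loaded CHO cells expressing the receptor. Inhibitory activity used a 15 min pre-incubation before carbachol at the subtype EC80.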

[2] = target: T2, M4 muscarinic receptor (Homo sapiens, UniProt P08173); assay: Functional mobilization of intracellular calcium (FLIPR, Fluo-3), M4-CHO cells; type: cell-based; details: for Emax: 100% efficacy is the maximum response obtained with the Carbachol control, read-out: M4 Efficacy
T2 construct: expressed in transfected cells; host or cells: CHO cells (M4-CHO, under puromycin, zeocin and blasticidin selection)
T2 sequence (P08173 1-479): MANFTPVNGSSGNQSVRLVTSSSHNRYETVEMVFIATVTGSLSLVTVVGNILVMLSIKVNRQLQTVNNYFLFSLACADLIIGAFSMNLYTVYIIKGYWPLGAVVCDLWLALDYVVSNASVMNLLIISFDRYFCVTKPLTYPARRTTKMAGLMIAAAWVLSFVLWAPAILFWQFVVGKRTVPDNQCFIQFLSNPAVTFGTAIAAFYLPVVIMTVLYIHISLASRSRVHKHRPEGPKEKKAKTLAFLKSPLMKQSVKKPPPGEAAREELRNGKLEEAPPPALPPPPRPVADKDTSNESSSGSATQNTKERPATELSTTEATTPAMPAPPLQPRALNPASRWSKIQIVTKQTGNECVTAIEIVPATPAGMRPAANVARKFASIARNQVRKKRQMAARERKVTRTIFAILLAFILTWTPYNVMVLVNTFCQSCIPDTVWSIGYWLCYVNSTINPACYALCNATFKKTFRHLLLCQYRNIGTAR
In short: as §1

[3] = compound nos. 1-454, M1-CHO cells, calcium mobilization
[4] = compound nos. 1-454, M4-CHO cells, calcium mobilization

Row | SMILES | Emax ([1]; compound nos. 1-454) [%] | M1 Activity [1, 3] | Emax ([2]; compound nos. 1-454) [%] | M4 Activity [2, 4] | Emax ([1]; compound nos. 455-509) [%] | M1 Activity ([1]; compounds 455-509) | Emax ([2]; compound nos. 455-509) [%] | M4 Activity ([2]; compounds 455-509) | M1 Activity ([1]; compound nos. 1-454) | M4 Activity ([2]; compound nos. 1-454)
1 | CC(C)C(=O)N[C@H]1CC2(CCN(C[C@H]3C[C@H]4CC[C@H]3C4)CC2)c2ccccc21 [compound 55] | > 85 | +++ (activity was measured to be less than or equal to 0.7 μM) | 55 to 70 | +++ (activity was measured to be less than or equal to 0.1 μM) | – | – | – | – | – | –
2 | CCOC(=O)N1CCC(N2CCC3(CC2)CN(C(C)=O)c2ccc(-c4ccc(C)cc4)cc23)CC1 [compound 58, ethyl 4-(1-acetyl-5-p-tolylspiro[indoline-3,4′-piperidine]-1′-yl)piperidine-1-carboxylate] | 65 to 85 | +++ (activity was measured to be less than or equal to 0.7 μM) | 55 to 70 | ++ (activity was measured to be between 0.1 μM and 4.0 μM) | – | – | – | – | – | –
3 | CCOC(=O)N1C2CCC1CC(N1CCC3(CC1)CC(NC(C)=O)c1ccccc13)C2 (stereo not drawn) [compound 318] | 65 to 85 | +++ (activity was measured to be less than or equal to 0.7 μM) | > 70 | +++ (activity was measured to be less than or equal to 0.1 μM) | – | – | – | – | – | –
4 | CN(C)C(=O)N1CC2(CCN(C3CCN(c4cnc(Br)cn4)CC3)CC2)c2ccccc21 [compound 509] | – | – | – | – | > 100 | ++ (activity was measured to be between 2.0 μM and 5.0 μM) | 25 to 100 | ++ (activity was measured to be between 2.0 μM and 5.0 μM) | – | –
5 | CC(=O)N1CC2(CCN(C3CCN(C(=O)O[C@@H]4CCOC4)CC3)CC2)c2cc(C)ccc21 [compound 279] | < 65 | ++ (activity was measured to be between 0.7 μM and 3.0 μM) | < 55 | ++ (activity was measured to be between 0.1 μM and 4.0 μM) | – | – | – | – | – | –
6 | CC(C)OC(=O)N1C2CCC1CC(N1CCC3(CC1)CN(C(=O)C1CC1)c1ccc(F)cc13)C2 (stereo not drawn) [compound 345] | < 65 | +++ (activity was measured to be less than or equal to 0.7 μM) | < 55 | ++ (activity was measured to be between 0.1 μM and 4.0 μM) | – | – | – | – | – | –
7 | CCCOC(=O)N1C2CCC1CC(N1CCC3(CC1)CN(C(=O)O[C@@H]1CCOC1)c1ccc(F)cc13)C2 (stereo partly drawn) [compound 115] | 65 to 85 | +++ (activity was measured to be less than or equal to 0.7 μM) | < 55 | ++ (activity was measured to be between 0.1 μM and 4.0 μM) | – | – | – | – | – | –
8 | CCOC(=O)N1CCC(N2CCC3(CC2)CN(C(C)=O)c2ccc(-c4ccc(S(C)(=O)=O)cc4)cc23)CC1 [compound 177] | 65 to 85 | +++ (activity was measured to be less than or equal to 0.7 μM) | 55 to 70 | ++ (activity was measured to be between 0.1 μM and 4.0 μM) | – | – | – | – | – | –
9 | COC(=O)N1CC2(CCN(C3CC4CCC(C3)N4C(=O)O[C@@H]3CCOC3)CC2)c2cc(F)ccc21 (stereo partly drawn) [compound 192] | 65 to 85 | +++ (activity was measured to be less than or equal to 0.7 μM) | 55 to 70 | + (activity was measured to be greater than or equal to 4.0 μM) | – | – | – | – | – | –
10 | CCOC(=O)N1C2CCC1CC(N1CCC3(CC1)CNc1ccc(F)cc13)C2 (stereo not drawn) [compound 310] | < 65 | ++ (activity was measured to be between 0.7 μM and 3.0 μM) | < 55 | + (activity was measured to be greater than or equal to 4.0 μM) | – | – | – | – | – | –
11 | Clc1ccc2c(c1)C1(CCN([C@H]3C[C@@H]4CC[C@H]3C4)CC1)CO2 [compound 181] | 65 to 85 | ++ (activity was measured to be between 0.7 μM and 3.0 μM) | 55 to 70 | + (activity was measured to be greater than or equal to 4.0 μM) | – | – | – | – | – | –
12 | CCCOC(=O)N1CCC(N2CCC3(CC2)CN(C(=O)N(C)C)c2ccc(F)cc23)CC1 [compound 91] | 65 to 85 | +++ (activity was measured to be less than or equal to 0.7 μM) | < 55 | ++ (activity was measured to be between 0.1 μM and 4.0 μM) | – | – | – | – | – | –
13 | COC(=O)N1CC2(CCN(C3CC4CCC(C3)N4C(=O)OCC(C)C)CC2)c2cc(F)ccc21 (stereo not drawn) [compound 287] | < 65 | ++ (activity was measured to be between 0.7 μM and 3.0 μM) | < 55 | + (activity was measured to be greater than or equal to 4.0 μM) | – | – | – | – | – | –
14 | Cc1cncc(N2CCC(N3CCC4(CCN(C(=O)N(C)C)c5ccccc54)CC3)CC2)n1 [compound 494] | – | – | – | – | > 100 | +++ (activity was measured to be less than or equal to 2.0 μM) | 25 to 100 | ++ (activity was measured to be between 2.0 μM and 5.0 μM) | – | –
15 | CCOC(=O)N1C2CCC1CC(N1CCC3(CC1)CC(=O)Nc1ccccc13)C2 (stereo not drawn) [compound 56] | 65 to 85 | +++ (activity was measured to be less than or equal to 0.7 μM) | 55 to 70 | +++ (activity was measured to be less than or equal to 0.1 μM) | – | – | – | – | – | –
16 | CCCc1cnc(N2CCC(N3CCC4(CC3)CN(C(=O)N(C)C)c3ccccc34)CC2)cn1 [compound 459] | – | – | – | – | > 100 | ++ (activity was measured to be between 2.0 μM and 5.0 μM) | 25 to 100 | ++ (activity was measured to be between 2.0 μM and 5.0 μM) | – | –
17 | O=C(C1CCC1)N1C2CCC1CC(N1CCC3(CC1)COc1ccc(F)cc13)C2 (stereo not drawn) [compound 134] | > 85 | +++ (activity was measured to be less than or equal to 0.7 μM) | < 55 | ++ (activity was measured to be between 0.1 μM and 4.0 μM) | – | – | – | – | – | –
18 | CC(=O)N[C@H]1CC2(CCN(C3CCCCCCC3)CC2)c2ccccc21 [compound 261] | < 65 | ++ (activity was measured to be between 0.7 μM and 3.0 μM) | < 55 | + (activity was measured to be greater than or equal to 4.0 μM) | – | – | – | – | – | –
19 | CCOC(=O)N1CCC(CN2CCC3(CC2)C(=O)Nc2ccccc23)CC1 [compound 319] | < 65 | ++ (activity was measured to be between 0.7 μM and 3.0 μM) | < 55 | + (activity was measured to be greater than or equal to 4.0 μM) | – | – | – | – | – | –
20 | CC(=O)N1CC2(CCN(C3CCN(C(=O)O[C@H]4CCOC4)CC3)CC2)c2cc(C)ccc21 [compound 398] | < 65 | – | < 55 | – | – | – | – | – | ++ (activity was measured to be between 0.7 μM and 3.0 μM) | + (activity was measured to be greater than or equal to 4.0 μM)
21 | Fc1ccc2c(c1)C1(CCN(C3CCCCC3)CC1)CN2 [compound 325] | 65 to 85 | + (activity was measured to be greater than or equal to 3.0 μM) | < 55 | + (activity was measured to be greater than or equal to 4.0 μM) | – | – | – | – | – | –
